What was measured:
Experiment in all cases: radiometric filter-binding kinase assay, Kinase HotSpot
Details in all cases: compound 0.5 µM; ATP 10 µM
CDK5 CDK5R1 p35 (human) = CDK5 CDK5R1 p35 (human) (UniProt Q00535+Q15078)
MKNK2 (human) = MKNK2 (human) (UniProt Q9HBH9)
AXL (human) = AXL (human) (UniProt P30530)
LCK (human) = LCK (human) (UniProt P06239)
RPS6KA3 KD1 KD2 (human) = RPS6KA3 KD1 KD2 (human) (UniProt P51812)
HIPK1 (human) = HIPK1 (human) (UniProt Q86Z02)
SRMS (human) = SRMS (human) (UniProt Q9H3Y6)
MARK2 (human) = MARK2 (human) (UniProt Q7KZI7)
CAMK2D (human) = CAMK2D (human) (UniProt Q13557)
CLK2 (human) = CLK2 (human) (UniProt P49760)
PRKCB2 (human) = PRKCB2 (human) (UniProt P05771)
MAP4K4 (human) = MAP4K4 (human) (UniProt O95819)
GRK6 (human) = GRK6 (human) (UniProt P43250)
EGFR (human) = EGFR (human) (UniProt P00533)
CDK2 CCNE1 (human) = CDK2 CCNE1 (human) (UniProt P24941+P24864)
VRK1 (human) = VRK1 (human) (UniProt Q99986)
TSSK2 (human) = TSSK2 (human) (UniProt Q96PF2)
PAK1 (human) = PAK1 (human) (UniProt Q13153)
MARK4 (human) = MARK4 (human) (UniProt Q96L34)
PRKCB1 (human) = PRKCB1 (human) (UniProt P05771)
MUSK (human) = MUSK (human) (UniProt O15146)
PDPK1 (human) = PDPK1 (human) (UniProt O15530)
HIPK4 (human) = HIPK4 (human) (UniProt Q8NE63)
CLK4 (human) = CLK4 (human) (UniProt Q9HAZ1)
PAK6 (human) = PAK6 (human) (UniProt Q9NQU5)
LIMK1 (human) = LIMK1 (human) (UniProt P53667)
EPHA2 (human) = EPHA2 (human) (UniProt P29317)
FER (human) = FER (human) (UniProt P16591)
EPHB1 (human) = EPHB1 (human) (UniProt P54762)
MAPKAPK2 (human) = MAPKAPK2 (human) (UniProt P49137)
TTK (human) = TTK (human) (UniProt P33981)
GRK4 (human) = GRK4 (human) (UniProt P32298)
EPHA3 (human) = EPHA3 (human) (UniProt P29320)
TAOK3 (human) = TAOK3 (human) (UniProt Q9H2K8)
MAPKAPK5 (human) = MAPKAPK5 (human) (UniProt Q8IW41)
DCLK2 (human) = DCLK2 (human) (UniProt Q8N568)
GSK3B (human) = GSK3B (human) (UniProt P49841)
MAPKAPK3 (human) = MAPKAPK3 (human) (UniProt Q16644)
MAP4K2 (human) = MAP4K2 (human) (UniProt Q12851)
STK39 (human) = STK39 (human) (UniProt Q9UEW8)
DAPK2 (human) = DAPK2 (human) (UniProt Q9UIK4)
Sequence of DAPK2 (human) (Q9UIK4 whole entry, looked up): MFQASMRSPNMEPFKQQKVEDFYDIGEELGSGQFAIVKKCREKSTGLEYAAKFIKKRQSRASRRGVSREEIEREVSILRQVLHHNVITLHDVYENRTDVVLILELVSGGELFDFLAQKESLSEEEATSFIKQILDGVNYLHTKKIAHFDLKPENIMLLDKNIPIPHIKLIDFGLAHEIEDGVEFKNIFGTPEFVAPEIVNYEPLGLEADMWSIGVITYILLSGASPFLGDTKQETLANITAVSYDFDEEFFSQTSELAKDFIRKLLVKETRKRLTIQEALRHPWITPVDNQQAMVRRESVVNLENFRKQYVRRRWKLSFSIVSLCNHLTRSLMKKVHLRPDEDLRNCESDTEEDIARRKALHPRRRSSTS

Sequence of EPHB1 (human) (P54762 whole entry, looked up): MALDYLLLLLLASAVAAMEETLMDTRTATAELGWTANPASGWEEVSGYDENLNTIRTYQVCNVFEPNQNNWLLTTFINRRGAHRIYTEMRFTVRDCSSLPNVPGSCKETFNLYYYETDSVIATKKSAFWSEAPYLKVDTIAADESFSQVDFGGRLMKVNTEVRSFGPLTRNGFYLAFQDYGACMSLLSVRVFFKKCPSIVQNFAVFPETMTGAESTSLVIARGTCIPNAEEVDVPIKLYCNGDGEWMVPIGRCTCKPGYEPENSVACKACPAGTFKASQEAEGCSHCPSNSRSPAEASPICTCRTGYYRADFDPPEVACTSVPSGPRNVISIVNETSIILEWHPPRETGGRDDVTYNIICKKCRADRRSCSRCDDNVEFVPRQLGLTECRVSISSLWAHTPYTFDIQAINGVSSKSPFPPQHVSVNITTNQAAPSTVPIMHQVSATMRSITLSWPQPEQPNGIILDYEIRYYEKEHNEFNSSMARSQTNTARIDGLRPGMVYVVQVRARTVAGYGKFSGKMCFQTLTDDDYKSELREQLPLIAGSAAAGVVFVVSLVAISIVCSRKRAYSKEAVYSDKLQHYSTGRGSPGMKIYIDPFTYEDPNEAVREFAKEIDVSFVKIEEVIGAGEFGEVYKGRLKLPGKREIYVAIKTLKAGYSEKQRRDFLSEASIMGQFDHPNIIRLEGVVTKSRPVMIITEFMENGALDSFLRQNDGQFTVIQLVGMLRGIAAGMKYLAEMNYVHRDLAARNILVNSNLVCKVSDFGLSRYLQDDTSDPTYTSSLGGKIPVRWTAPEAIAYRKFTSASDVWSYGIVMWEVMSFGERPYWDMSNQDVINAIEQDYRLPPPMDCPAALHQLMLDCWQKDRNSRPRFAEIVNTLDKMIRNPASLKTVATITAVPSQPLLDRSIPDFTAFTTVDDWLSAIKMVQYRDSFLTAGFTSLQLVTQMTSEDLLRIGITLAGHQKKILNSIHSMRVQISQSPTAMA
Sequence of MKNK2 (human) (Q9HBH9 whole entry, looked up): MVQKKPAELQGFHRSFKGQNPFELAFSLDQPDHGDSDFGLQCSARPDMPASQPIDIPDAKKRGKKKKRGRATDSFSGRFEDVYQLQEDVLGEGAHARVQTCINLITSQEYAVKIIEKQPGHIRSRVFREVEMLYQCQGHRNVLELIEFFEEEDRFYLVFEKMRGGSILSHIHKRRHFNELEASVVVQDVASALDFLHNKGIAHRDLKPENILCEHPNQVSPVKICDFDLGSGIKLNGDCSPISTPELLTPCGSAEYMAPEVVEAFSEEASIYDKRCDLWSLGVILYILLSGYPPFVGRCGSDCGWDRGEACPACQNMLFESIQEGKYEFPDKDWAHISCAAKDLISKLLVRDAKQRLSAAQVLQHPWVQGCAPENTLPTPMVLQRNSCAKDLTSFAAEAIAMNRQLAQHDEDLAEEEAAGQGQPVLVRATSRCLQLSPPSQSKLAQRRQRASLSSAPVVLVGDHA
Sequence of EGFR (human) (P00533 whole entry, looked up): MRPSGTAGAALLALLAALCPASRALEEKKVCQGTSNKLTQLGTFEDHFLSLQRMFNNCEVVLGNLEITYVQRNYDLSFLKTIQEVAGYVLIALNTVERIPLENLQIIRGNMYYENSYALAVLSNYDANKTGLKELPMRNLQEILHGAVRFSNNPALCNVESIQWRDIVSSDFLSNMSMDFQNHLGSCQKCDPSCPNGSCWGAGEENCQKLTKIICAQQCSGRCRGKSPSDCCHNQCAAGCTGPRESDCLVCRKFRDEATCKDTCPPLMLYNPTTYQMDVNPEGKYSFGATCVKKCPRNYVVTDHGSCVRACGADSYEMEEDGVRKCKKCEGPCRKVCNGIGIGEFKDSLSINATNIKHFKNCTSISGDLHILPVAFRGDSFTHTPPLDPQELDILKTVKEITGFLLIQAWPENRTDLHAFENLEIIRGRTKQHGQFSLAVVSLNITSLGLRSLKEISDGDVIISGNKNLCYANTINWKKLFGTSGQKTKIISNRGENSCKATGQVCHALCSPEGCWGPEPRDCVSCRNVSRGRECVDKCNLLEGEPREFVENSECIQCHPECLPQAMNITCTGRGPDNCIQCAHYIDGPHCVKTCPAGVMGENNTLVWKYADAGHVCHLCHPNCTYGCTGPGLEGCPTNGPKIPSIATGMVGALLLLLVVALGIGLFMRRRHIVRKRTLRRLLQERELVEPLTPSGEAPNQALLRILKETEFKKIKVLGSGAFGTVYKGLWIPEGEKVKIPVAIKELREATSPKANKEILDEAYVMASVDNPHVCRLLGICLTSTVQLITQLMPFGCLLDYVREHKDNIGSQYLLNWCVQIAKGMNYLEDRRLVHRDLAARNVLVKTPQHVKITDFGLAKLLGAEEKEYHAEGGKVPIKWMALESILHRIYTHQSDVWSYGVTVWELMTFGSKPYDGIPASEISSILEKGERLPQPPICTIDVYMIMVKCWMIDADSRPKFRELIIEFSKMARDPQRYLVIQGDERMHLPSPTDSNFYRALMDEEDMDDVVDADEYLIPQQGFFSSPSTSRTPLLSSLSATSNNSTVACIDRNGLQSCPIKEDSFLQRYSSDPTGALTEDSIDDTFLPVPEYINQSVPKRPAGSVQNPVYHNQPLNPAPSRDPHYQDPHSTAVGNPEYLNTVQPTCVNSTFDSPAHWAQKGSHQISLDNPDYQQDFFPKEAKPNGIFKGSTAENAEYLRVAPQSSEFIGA
Sequence of CLK4 (human) (Q9HAZ1 whole entry, looked up): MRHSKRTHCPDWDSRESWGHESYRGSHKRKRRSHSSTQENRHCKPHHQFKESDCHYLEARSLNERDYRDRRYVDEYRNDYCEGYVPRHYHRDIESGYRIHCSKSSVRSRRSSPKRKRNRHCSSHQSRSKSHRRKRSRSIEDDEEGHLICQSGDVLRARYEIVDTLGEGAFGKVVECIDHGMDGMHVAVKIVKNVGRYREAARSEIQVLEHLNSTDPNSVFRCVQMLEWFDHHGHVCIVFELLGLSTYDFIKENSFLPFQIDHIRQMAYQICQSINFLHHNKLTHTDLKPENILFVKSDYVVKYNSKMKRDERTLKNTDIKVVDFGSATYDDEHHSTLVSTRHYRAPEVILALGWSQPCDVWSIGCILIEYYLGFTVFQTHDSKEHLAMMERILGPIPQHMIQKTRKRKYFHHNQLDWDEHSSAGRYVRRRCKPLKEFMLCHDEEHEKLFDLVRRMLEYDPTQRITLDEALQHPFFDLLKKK
Sequence of MAP4K2 (human) (Q12851 whole entry, looked up): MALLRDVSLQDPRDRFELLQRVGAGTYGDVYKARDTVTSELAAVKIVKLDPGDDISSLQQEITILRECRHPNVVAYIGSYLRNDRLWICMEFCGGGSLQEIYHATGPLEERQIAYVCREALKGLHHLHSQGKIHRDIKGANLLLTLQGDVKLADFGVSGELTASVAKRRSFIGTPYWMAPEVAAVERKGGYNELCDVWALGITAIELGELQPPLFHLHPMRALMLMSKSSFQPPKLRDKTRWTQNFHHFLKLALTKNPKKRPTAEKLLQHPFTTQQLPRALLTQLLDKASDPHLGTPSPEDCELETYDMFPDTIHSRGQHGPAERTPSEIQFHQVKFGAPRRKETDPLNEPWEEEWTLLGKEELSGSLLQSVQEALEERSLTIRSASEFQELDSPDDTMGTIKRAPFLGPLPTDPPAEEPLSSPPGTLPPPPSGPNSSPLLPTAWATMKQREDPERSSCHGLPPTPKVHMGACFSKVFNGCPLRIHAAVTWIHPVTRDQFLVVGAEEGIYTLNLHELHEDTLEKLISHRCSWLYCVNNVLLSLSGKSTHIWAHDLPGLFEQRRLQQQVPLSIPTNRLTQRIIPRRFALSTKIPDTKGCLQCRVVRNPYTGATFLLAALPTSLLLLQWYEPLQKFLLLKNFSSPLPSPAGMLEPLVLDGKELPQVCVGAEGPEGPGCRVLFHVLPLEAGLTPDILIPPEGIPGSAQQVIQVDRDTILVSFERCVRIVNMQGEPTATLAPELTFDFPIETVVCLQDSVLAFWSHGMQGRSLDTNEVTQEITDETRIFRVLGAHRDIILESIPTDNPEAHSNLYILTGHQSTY
Sequence of RPS6KA3 KD1 KD2 (human) (P51812 whole entry, looked up): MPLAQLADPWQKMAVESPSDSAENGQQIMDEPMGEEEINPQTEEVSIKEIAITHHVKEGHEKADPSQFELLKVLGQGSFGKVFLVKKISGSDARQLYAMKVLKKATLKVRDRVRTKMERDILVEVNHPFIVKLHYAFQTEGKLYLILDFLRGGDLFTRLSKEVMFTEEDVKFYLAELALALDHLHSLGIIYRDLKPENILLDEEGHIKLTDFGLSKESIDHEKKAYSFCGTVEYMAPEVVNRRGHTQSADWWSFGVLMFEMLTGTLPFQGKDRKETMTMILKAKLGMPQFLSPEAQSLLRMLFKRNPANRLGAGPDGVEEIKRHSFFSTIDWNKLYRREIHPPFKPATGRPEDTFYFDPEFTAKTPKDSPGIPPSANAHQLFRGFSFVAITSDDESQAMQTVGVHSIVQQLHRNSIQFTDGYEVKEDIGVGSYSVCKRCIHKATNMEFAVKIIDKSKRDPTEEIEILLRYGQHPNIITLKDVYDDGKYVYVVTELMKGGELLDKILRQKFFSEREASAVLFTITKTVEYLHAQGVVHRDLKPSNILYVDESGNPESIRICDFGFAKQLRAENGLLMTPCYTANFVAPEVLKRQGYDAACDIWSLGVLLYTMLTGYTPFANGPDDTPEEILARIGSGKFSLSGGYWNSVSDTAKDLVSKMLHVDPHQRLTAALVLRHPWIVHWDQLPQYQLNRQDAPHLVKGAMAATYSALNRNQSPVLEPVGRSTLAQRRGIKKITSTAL

Structure (SMILES): O=C1Nc2ccc(Br)cc2/C1=C\c1cc2c([nH]1)CCCC2
- residual activity (CDK5 CDK5R1 p35 (human)): 84.6%
- residual activity (MKNK2 (human)): 87.1%
- residual activity (AXL (human)): 90%
- residual activity (LCK (human)): 84.5%
- residual activity (RPS6KA3 KD1 KD2 (human)): 80.9%
- residual activity (HIPK1 (human)): 97.2%
- residual activity (SRMS (human)): 104%
- residual activity (MARK2 (human)): 77%
- residual activity (CAMK2D (human)): 84.2%
- residual activity (CLK2 (human)): 88.6%
- residual activity (PRKCB2 (human)): 85.5%
- residual activity (MAP4K4 (human)): 6.84%
- residual activity (GRK6 (human)): 95.8%
- residual activity (EGFR (human)): 87.4%
- residual activity (CDK2 CCNE1 (human)): 96%
- residual activity (VRK1 (human)): 108%
- residual activity (TSSK2 (human)): 89.8%
- residual activity (PAK1 (human)): 95.7%
- residual activity (MARK4 (human)): 82.9%
- residual activity (PRKCB1 (human)): 97.4%
- residual activity (MUSK (human)): 88.6%
- residual activity (PDPK1 (human)): 95.3%
- residual activity (HIPK4 (human)): 104%
- residual activity (CLK4 (human)): 84.5%
- residual activity (PAK6 (human)): 89.8%
- residual activity (LIMK1 (human)): 83%
- residual activity (EPHA2 (human)): 110%
- residual activity (FER (human)): 74.7%
- residual activity (EPHB1 (human)): 85.5%
- residual activity (MAPKAPK2 (human)): 97.5%
- residual activity (TTK (human)): 95.1%
- residual activity (GRK4 (human)): 101%
- residual activity (EPHA3 (human)): 94.6%
- residual activity (TAOK3 (human)): 75.3%
- residual activity (MAPKAPK5 (human)): 90.6%
- residual activity (DCLK2 (human)): 98.2%
- residual activity (GSK3B (human)): 94.1%
- residual activity (MAPKAPK3 (human)): 95.1%
- residual activity (MAP4K2 (human)): 58.1%
- residual activity (STK39 (human)): 86%
- residual activity (DAPK2 (human)): 102%
